Experimental data published in ChEMBL document CHEMBL1201862, “PubChem BioAssay data set” (2004).
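Method: 48-hour compound exposure of cells in 96-well plates, five concentrations, linear interpolation of endpoints. GI50 = concentration required for 50% inhibition of growth.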 Activity calls are given as the source filed them. Rule as the data show it: active = GI50 up to about 1.1 µM and inactive = higher.

Columns and labels:
Assay in all cases: DTP human tumour cell line panel, 48 h
786-0 = tested on: 786-0
A549 = tested on: A549
ACHN = tested on: ACHN
CAKI-1 = tested on: CAKI-1
CCRF-CEM = tested on: CCRF-CEM
COLO 205 = tested on: COLO 205
DLD-1 = tested on: DLD-1
DMS-273 = tested on: DMS-273
EKVX = tested on: EKVX
HCC 2998 = tested on: HCC 2998
HCT-116 = tested on: HCT-116
HCT-15 = tested on: HCT-15
HL-60 = tested on: HL-60
HOP-18 = tested on: HOP-18
HOP-62 = tested on: HOP-62
HOP-92 = tested on: HOP-92
HT-29 = tested on: HT-29
IGROV-1 = tested on: IGROV-1
K562 = tested on: K562
KM-20L2 = tested on: KM-20L2
KM12 = tested on: KM12
LOX IMVI = tested on: LOX IMVI
LXFL 529 = tested on: LXFL 529
M14 = tested on: M14
M19-MEL = tested on: M19-MEL
Malme-3M = tested on: Malme-3M
NCI-H226 = tested on: NCI-H226
NCI-H23 = tested on: NCI-H23
NCI-H460 = tested on: NCI-H460
NCI-H522 = tested on: NCI-H522
OVCAR-3 = tested on: OVCAR-3
OVCAR-4 = tested on: OVCAR-4
OVCAR-5 = tested on: OVCAR-5
OVCAR-8 = tested on: OVCAR-8
RPMI-8226 = tested on: RPMI-8226
RXF 393 = tested on: RXF 393
SF-268 = tested on: SF-268
SF-295 = tested on: SF-295
SF-539 = tested on: SF-539
SK-MEL-28 = tested on: SK-MEL-28
SK-MEL-2 = tested on: SK-MEL-2
SK-MEL-5 = tested on: SK-MEL-5
SK-OV-3 = tested on: SK-OV-3
SN12C = tested on: SN12C
SNB-19 = tested on: SNB-19
SNB-75 = tested on: SNB-75
SNB-78 = tested on: SNB-78
SR = tested on: SR
SW-620 = tested on: SW-620
TK-10 = tested on: TK-10
U-251 = tested on: U-251
UACC-257 = tested on: UACC-257
UACC-62 = tested on: UACC-62
UO-31 = tested on: UO-31
XF498 = tested on: XF498

## Cc1ccc(C(=O)O/N=C2/CCCC/C2=C\c2ccccc2)cc1
786-0
  GI50: > 100 µM (inactive)
A549
  GI50: 19.5 µM (inactive)
ACHN
  GI50: 27.2 µM (inactive)
CAKI-1
  GI50: 63.2 µM (inactive)
CCRF-CEM
  GI50: 29.2 µM (inactive)
COLO 205
  GI50: 95.3 µM (inactive)
DLD-1
  GI50: 78.5 µM (inactive)
DMS-273
  GI50: 27.7 µM (inactive)
EKVX
  GI50: > 100 µM (inactive)
HCC 2998
  GI50: > 100 µM (inactive)
HCT-116
  GI50: 16.4 µM (inactive)
HCT-15
  GI50: 32.4 µM
HL-60
  GI50: 19.7 µM (inactive)
HOP-18
  GI50: > 100 µM (inactive)
HOP-62
  GI50: > 100 µM (inactive)
HOP-92
  GI50: 54.5 µM (inactive)
HT-29
  GI50: 43.5 µM (inactive)
IGROV-1
  GI50: 42.9 µM (inactive)
K562
  GI50: 19.2 µM (inactive)
KM-20L2
  GI50: 83.9 µM (inactive)
KM12
  GI50: 73.6 µM (inactive)
LOX IMVI
  GI50: 20.1 µM (inactive)
LXFL 529
  GI50: 16.9 µM (inactive)
M14
  GI50: > 100 µM (inactive)
M19-MEL
  GI50: 67.9 µM (inactive)
Malme-3M
  GI50: 14.4 µM (inactive)
NCI-H226
  GI50: > 100 µM (inactive)
NCI-H23
  GI50: 29.4 µM (inactive)
NCI-H460
  GI50: > 100 µM (inactive)
NCI-H522
  GI50: 16.6 µM (inactive)
OVCAR-3
  GI50: 38.1 µM (inactive)
OVCAR-4
  GI50: 36.9 µM (inactive)
OVCAR-5
  GI50: 81.1 µM (inactive)
OVCAR-8
  GI50: 37.2 µM (inactive)
RPMI-8226
  GI50: 77.8 µM (inactive)
RXF 393
  GI50: 38.6 µM (inactive)
SF-268
  GI50: 13.2 µM (inactive)
SF-295
  GI50: 39.2 µM (inactive)
SF-539
  GI50: 45.1 µM (inactive)
SK-MEL-28
  GI50: 12.7 µM (inactive)
SK-MEL-2
  GI50: > 100 µM (inactive)
SK-MEL-5
  GI50: 37.2 µM (inactive)
SK-OV-3
  GI50: > 100 µM (inactive)
SN12C
  GI50: 80.9 µM (inactive)
SNB-19
  GI50: > 100 µM (inactive)
SNB-75
  GI50: 33.5 µM (inactive)
SNB-78
  GI50: 15.6 µM (inactive)
SR
  GI50: > 100 µM (inactive)
SW-620
  GI50: 34 µM (inactive)
TK-10
  GI50: > 100 µM (inactive)
U-251
  GI50: 38.3 µM (inactive)
UACC-257
  GI50: > 100 µM (inactive)
UACC-62
  GI50: 41.5 µM (inactive)
UO-31
  GI50: 17.7 µM (inactive)
XF498
  GI50: 39.4 µM (inactive)
